We go through 5 molecules from patent publication US7553868B2, “Thiophene carboxamides as inhibitors of the enzyme IKK-2” (AstraZeneca AB, priority 2003, dated 2009).

One data set has as its target T1, IKK-2 (Homo sapiens, UniProt O14920).
T1 sequence (O14920 1-756): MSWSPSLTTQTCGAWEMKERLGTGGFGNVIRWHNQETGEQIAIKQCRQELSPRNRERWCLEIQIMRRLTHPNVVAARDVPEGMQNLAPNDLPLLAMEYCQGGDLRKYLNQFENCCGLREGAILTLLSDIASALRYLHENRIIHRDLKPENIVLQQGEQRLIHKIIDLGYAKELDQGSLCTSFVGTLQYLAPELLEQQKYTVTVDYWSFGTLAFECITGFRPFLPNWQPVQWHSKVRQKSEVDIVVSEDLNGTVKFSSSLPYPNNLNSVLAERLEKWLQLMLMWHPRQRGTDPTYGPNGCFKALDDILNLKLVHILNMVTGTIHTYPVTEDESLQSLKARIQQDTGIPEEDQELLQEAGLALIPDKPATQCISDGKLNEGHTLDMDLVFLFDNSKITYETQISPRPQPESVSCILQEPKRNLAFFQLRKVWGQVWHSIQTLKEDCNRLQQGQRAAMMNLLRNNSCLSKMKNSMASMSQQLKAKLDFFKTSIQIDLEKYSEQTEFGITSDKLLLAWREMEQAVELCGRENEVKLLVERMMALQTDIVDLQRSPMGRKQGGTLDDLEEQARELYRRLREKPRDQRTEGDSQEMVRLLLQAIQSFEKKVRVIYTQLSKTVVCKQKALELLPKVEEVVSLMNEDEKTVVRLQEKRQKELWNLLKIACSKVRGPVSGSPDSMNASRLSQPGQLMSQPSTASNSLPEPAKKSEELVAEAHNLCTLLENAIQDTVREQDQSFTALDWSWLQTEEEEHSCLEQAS
Kind of data set: IKK-2 filter kinase assay. The settings on record: 1 μM ATP, 1-53 GST-IκB substrate, read-out: Inhibition of IKK-2. In kind it is biochemical. The procedure: IKK-2 Filter Kinase Assay
The test compounds were dissolved to 10 mM in dimethylsulphoxide (DMSO). The compounds were then diluted 1 in 40 in kinase buffer (50 mM Tris, pH 7.4 containing 0.1 mM EGTA, 0.1 mM sodium orthovanadate and 0.1% β-mercaptoethanol). 1 in 3 serial dilutions were made from this solution with 2.5% DMSO in kinase buffer. 20 μl of compound dilution was added to wells of a 96 well plate in duplicate. 20 μl 2.5% DMSO in kinase buffer instead of compound was added to control wells (0% inhibition). […] 10 μl of a mixture of magnesium acetate, unlabelled ATP, and ^33P-labelled ATP was added to each well made such that the final concentration was 10 mM magnesium acetate, 1 μM ATP and 0.1 μCi ^33P ATP. […] The final reaction volume was 50 μl.
The kinase reactions were incubated at 21° C. for 80 minutes and the reaction stopped by precipitating the protein by the addition of an equal volume (50 μl) of 20% trichloroacetic acid (TCA). The precipitate was allowed to form for 10 minutes and then filtered onto a GF/C unifilter 96 well plate. Each filter was washed twice with approximately 1 ml 2% TCA. The filter plate was dried at 30-40° C. for 60 minutes, 20 μl scintillant was added to each well and the plate sealed and radioactivity counted on a Packard Topcount microplate scintillation counter.

A short description of data set [1]: Compound permeability and efflux potential using Caco-2 cell monolayers. In kind it is in vitro ADME, human. Set-up: Caco-2 Assay Papp: unit not given here. The settings on record: human, Caco-2; 10 μM compound, pH 7.4, 120 min at 37° C.; efflux ratio; read-out: Caco-2 Assay Papp (B-A)/Papp(A-B) Ratio. The text has this: (§1) Assessment of Compound Permeability and Efflux Potential using CACO-2 Cell Monolayers.
(§2) Caco-2 cells are a cell line derived from human colon cancer cells. The Caco-2 cells retain many of the properties of the human gut, including tight junctions and transporter proteins (e.g. pgp transporter), and are used primarily to assess the potential of compounds to be absorbed after oral administration. In this assay protocol, transports in the apical to basolateral direction (A-B direction) as well as in the opposite direction (B-A direction) are determined to assess both permeability and efflux potentials of the test compounds.
(§3) Cells are seeded at a density of 100,000 cells/well onto 1 μm filters within each well of 24-well plates (Beckton-Dickinson, UK) and grown until an intact monolayer of the cells is formed across each well (14 days).
(§4) When ready for use the intactness of the monolayers is assessed using measurement of the Trans-Epithelial Resistance (TEER) within each well. If TEERs are acceptable, each test compound is added to pH 7.4 buffer to a concentration of 10 μM in either the upper (Apical; A) or lower (Basolateral; B) chambers of the individual wells of the 24-well plates in duplicate, resulting in replicate measurements of the permeability of each compound through the monolayers in both the A-B and B-A directions. Four reference compounds are incubated alongside test compounds for quality control purposes (low, medium and high permeability plus one known efflux substrate).
(§5) After mixing, an aliquot of the donor chamber is taken immediately for analysis (TO). The plates are then incubated for 120 min at 37° C., after which a further aliquot is taken from the donor chamber (used to assess recovery over the duration of the experiment), while a similar aliquot is taken from the recipient chamber at this time (T120 sample).
(§6) All sample manipulations are undertaken on a Tecan Genesis RS200 robot.
(§7) All samples are analysed using LC-electrospray MS (both + and − mode), and peak areas used to quantify each test agent.
(§8) From the data obtained the rate of transfer (Papp) of each compound across the monolayer is calculated in either the A-B or B-A directions. From the Papp(A-B) data, the potential human absorption is categorised as LOW (Papp<=[…].cm^2.sec^−1), PARTIAL (Papp>0.5<=2.9×10^6 cm^2.sec^−1) or HIGH (Papp>2.9×10^6.cm^2.sec^−1), while from the Papp(B-A)/Papp(A-B) ratio, the potential for efflux of the test compound is assessed, where a ratio≧5 is categorised as HIGH, and <5 is categorised as LOW.

The test system of the next data set is Caco-2 cell monolayers. The description is as above. In kind it is in vitro ADME, human. As to conditions: 10 μM compound, pH 7.4, 120 min at 37° C.; Papp(A-B) used for absorption category. Set-up: Caco-2 Assay Papp: unit not given here.
Excerpt: as §1, §2, §3, §4, §5, §6, §7, §8

Turning to `NC(=O)Nc1sc(-c2ccccc2OCCN2Cc3ccccc3C2)cc1C(N)=O` [Example 5, 2-[(Aminocarbonyl)amino]-5-[2-{2-(1,3-dihydro-2H-isoindol-2-yl)ethoxy}phenyl]thiophene-3-carboxamide], at IKK-2, the IC50 was 150 nM. Moreover, the efflux ratio at 120 min, 10 μM in data set [1] was 0.66. In addition, the “Caco-2 Assay Papp” value in the data set on Caco-2 cell monolayers was 14.3.

Take `NC(=O)Nc1cc(-c2ccccc2OCCN2Cc3ccccc3C2)sc1C(N)=O` [Example 13, 3-[(Aminocarbonyl)amino]-5-[2-{2-(1,3-dihydro-2H-isoindol-2-yl)ethoxy}phenyl]thiophene-2-carboxamide]: at IKK-2, the IC50 is 1430 nM. For the same molecule, the efflux ratio at 120 min, 10 μM in data set [1] was 1.26. Further, in the data set on Caco-2 cell monolayers, the “Caco-2 Assay Papp” value was determined as 23.6.

Consider `CN1CCC(Oc2ccccc2-c2cc(C(N)=O)c(NC(N)=O)s2)C1` (stereo not drawn) [2-[(Aminocarbonyl)amino]-5-(2-[{1-methylpyrrolidin-3-yl}oxy]phenyl)-3-thiophenecarboxamide, reference compound], for which, on IKK-2, the IC50 amounted to 10 nM. For the same molecule, in data set [1], the efflux ratio at 120 min, 10 μM was found to be 8.14. Also, the “Caco-2 Assay Papp” value in the data set on Caco-2 cell monolayers is 2.19.

For the molecule `COCCN1CCC(Oc2ccccc2-c2cc(C(N)=O)c(NC(N)=O)s2)C1` (stereo not drawn) [2-[(Aminocarbonyl)amino]-5-(2-{[1-(2-methoxyethyl)-pyrrolidin-3-yl]oxy}phenyl)-3-thiophenecarboxamide, reference compound], the IC50 on IKK-2 was determined as 30 nM. Moreover, in data set [1], the efflux ratio at 120 min, 10 μM amounted to 5.88. For the same molecule, in the data set with Caco-2 cell monolayers, the “Caco-2 Assay Papp” value is on record as 1.86.

In the case of `NC(=O)Nc1sc(-c2ccccc2OC2CCN(Cc3ccccc3)C2)cc1C(N)=O` (stereo not drawn) [Example 7, 2-[(Aminocarbonyl)amino]-5-[2-{[1-benzylpyrrolidin-3-yl]oxy}phenyl]thiophene-3-carboxamide], the IC50 on IKK-2 was 40 nM. For the same molecule, in data set [1], the efflux ratio at 120 min, 10 μM came out at 1.07. The “Caco-2 Assay Papp” value in the data set on Caco-2 cell monolayers came to 15.7.
